This is an account of results in US11377425B1, “Small molecule modulators of IL-17” (LEO Pharma A/S, priority 2018, dated 2022).

The assay deals with T1, human IL-17AA (Homo sapiens, UniProt Q16552).
T1 construct: host or cells: HEK (human embryonic kidney) cells
T1 sequence (Q16552 24-155): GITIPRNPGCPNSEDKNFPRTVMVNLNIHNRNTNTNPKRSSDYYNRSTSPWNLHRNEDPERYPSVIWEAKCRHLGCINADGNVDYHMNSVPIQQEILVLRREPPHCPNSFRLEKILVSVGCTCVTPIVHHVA
As to the kind of experiment: IL-8 release assay in human epithelial keratinocytes adult (HEKa). Format: cell-based. Conditions: HEKa cells, 3 ng/mL HEK-human IL-17AA + 10 ng/mL human TNFalpha; read-out: Rel EC50 IL-8 release assay. In outline: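 Adult human epidermal keratinocytes stimulated 68-72 h at 37 °C with 3 ng/mL HEK-derived human IL-17AA plus 10 ng/mL TNF-alpha (final) in the presence of compound; TNF-alpha alone defines 100% inhibition. Secreted IL-8 measured by HTRF as percent of controls; relative IC50/Emax from four-parameter fit (r^2>0.9), cytotoxicity by PrestoBlue.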

A value given as a limit tells only on which side of the number the result lay.

One may read the EC50 as the midpoint of the concentration-response curve.

Take `Cc1nccn1-c1ccc(NC(=O)[C@@H](NC(=O)c2ccnn2C)[C@@H]2CCCc3ccccc32)cc1` [Example 378, 2-methyl-N-[(1S)-2-[4-(2-methylimidazol-1-yl)anilino]-2-oxo-1-[(1R)-tetralin-1-yl]ethyl]pyrazole-3-carboxamide]: the EC50 is more than 1000 nM.
The result for `Cc1ncccc1-c1ccc(NC(=O)[C@@H](NC(=O)c2ccnn2C(C)C)C(C2CC2)C2CC2)cc1` [Example 404, N-[(1S)-1-(dicyclopropylmethyl)-2-[4-(2-methyl-3-pyridyl)anilino]-2-oxo-ethyl]-2-isopropyl-pyrazole-3-carboxamide] reads 100 to 1000 nM; that for `Cc1n[nH]c(C)c1-c1ccc(NC(=O)[C@@H](NC(=O)c2ccnn2C)C2[C@H]3CCCC[C@@H]23)cc1` (stereo partly drawn) [Example 246, N-[(1S)-2-[4-(3,5-dimethyl-1H-pyrazol-4-yl)anilino]-1-[(1S,6R)-norcaran-7-yl]-2-oxo-ethyl]-2-methyl-pyrazole-3-carboxamide], 100 to 1000 nM; that for `Cc1n[nH]c(C)c1-c1ccc(NC(=O)[C@@H](NC(=O)c2ccnn2C)C(C)CC(C)(C)C)cc1` (mixture of isomers) [Example 196], less than 100 nM.
The value for `CCn1nccc1C(=O)NC(C(=O)Nc1ccc(-c2c(C)n[nH]c2C)cc1)C1CCCCCCC1` (single isomer, unassigned) [Example 155, N-[1-cyclooctyl-2-[4-(3,5-dimethyl-1H-pyrazol-4-yl)anilino]-2-oxo-ethyl]-2-ethyl-pyrazole-3-carboxamide] was less than 100 nM.
The result for `Cc1n[nH]c(C)c1-c1ccc(NC(=O)C(NC(=O)c2ccnn2C)[C@H]2CCCc3ccc(F)cc32)cc1` (stereo partly drawn) [Example 261] reads less than 100 nM; that for `CCn1nncc1C(=O)N[C@H](C(=O)Nc1ccc(-c2c(C)n[nH]c2C)cc1)C(C1CC1)C1CC1` [Example 270, N-[(1S)-1-(dicyclopropylmethyl)-2-[4-(3,5-dimethyl-1H-pyrazol-4-yl)anilino]-2-oxo-ethyl]-3-ethyl-triazole-4-carboxamide], 100 to 1000 nM.
`Cc1n[nH]c(C)c1-c1ccc(NC(=O)C(NC(=O)c2ccnn2CCC(C)O)C2CCCCCCC2)cc1` (single isomer, unassigned) [Example 143, N-[1-cyclooctyl-2-[4-(3,5-dimethyl-1H-pyrazol-4-yl)anilino]-2-oxo-ethyl]-2-(3-hydroxybutyl)pyrazole-3-carboxamide]: the EC50 fell in the range of 100 to 1000 nM.
For `Cc1n[nH]c(C)c1-c1ccc(NC(=O)[C@@H](NC(=O)c2ccn(C(C)C#N)n2)C(C2CC2)C2CC2)cc1` (stereo partly drawn) [Example 172, 1-(1-cyanoethyl)-N-[(1S)-1-(dicyclopropylmethyl)-2-[4-(3,5-dimethyl-1H-pyrazol-4-yl)anilino]-2-oxo-ethyl]pyrazole-3-carboxamide], the EC50 was more than 1000 nM.
On to `Cc1n[nH]c(C)c1-c1ccc(NC(=O)[C@@H](Cc2ccccc2)NC(=O)c2ccnn2C)cc1` [Example 297, N-[(1R)-1-benzyl-2-[4-(3,5-dimethyl-1H-pyrazol-4-yl)anilino]-2-oxo-ethyl]-2-methyl-pyrazole-3-carboxamide], for which the EC50 is more than 1000 nM.
The result for `CCn1nccc1C(=O)N[C@H](C(=O)Nc1ccc(-c2c(C)n[nH]c2C)cc1)C1CCC(F)(F)CC1` [Example 18, N-[(1S)-1-(4,4-difluorocyclohexyl)-2-[4-(3,5-dimethyl-1H-pyrazol-4-yl)anilino]-2-oxo-ethyl]-2-ethyl-pyrazole-3-carboxamide] reads 100 to 1000 nM; that for `Cc1[nH]nc(C(C)O)c1-c1ccc(NC(=O)[C@@H](NC(=O)OC(C)(C)C)C(c2ccccc2)c2ccccc2)cc1` (stereo partly drawn) [Example 434, tert-butyl N-[(1S)-1-benzhydryl-2-[4-[5-(1-hydroxyethyl)-3-methyl-1H-pyrazol-4-yl]anilino]-2-oxo-ethyl]carbamate], 100 to 1000 nM.
The value for `Cc1n[nH]c(C)c1-c1ccc(NC(=O)[C@@H](NC(=O)c2ccnn2C(C)C)[C@H]2CCOc3c(F)cc(F)cc32)cc1` [Example 279, N-[(1S)-1-[(4S)-6,8-difluorochroman-4-yl]-2-[4-(3,5-dimethyl-1H-pyrazol-4-yl)anilino]-2-oxo-ethyl]-2-isopropyl-pyrazole-3-carboxamide] was less than 100 nM; that for `Cc1n[nH]c(C)c1-c1ccc(NC(=O)[C@@H](NC(=O)N2CCCC2C(C)C)C2CCCCC2)cc1` (stereo partly drawn) [Example 475, N-[(1S)-1-cyclohexyl-2-[4-(3,5-dimethyl-1H-pyrazol-4-yl)anilino]-2-oxo-ethyl]-2-isopropyl-pyrrolidine-1-carboxamide] was more than 1000 nM; that for `CCn1nccc1C(=O)N[C@H](C(=O)Nc1ccc(-c2c(C)n[nH]c2C)c(O)c1)[C@H]1CC[C@H](C)CC1` [Example 416, N-[(1S)-2-[4-(3,5-dimethyl-1H-pyrazol-4-yl)-3-hydroxy-anilino]-1-(trans-4-methylcyclohexyl)-2-oxo-ethyl]-2-ethyl-pyrazole-3-carboxamide] was less than 100 nM.
On to `Cc1n[nH]c(C)c1-c1ccc(NC(=O)[C@@H](NC(=O)OCc2ccccc2)C2CCCCC2)cc1` [Example 429, benzyl N-[(1S)-1-cyclohexyl-2-[4-(3,5-dimethyl-1H-pyrazol-4-yl)anilino]-2-oxo-ethyl]carbamate], for which the EC50 lay within 100 to 1000 nM.
For `Cc1ncn(C)c1-c1ccc(NC(=O)C(NC(=O)OC(C)(C)C)C(C2CC2)C2CC2)cc1` (stereo not drawn) [Example 84, tert-butyl N-[1-(dicyclopropylmethyl)-2-[4-(3,5-dimethylimidazol-4-yl)anilino]-2-oxo-ethyl]carbamate], the concentration for a half-maximal effect (EC50) lay within 100 to 1000 nM.
The result for `Cc1n[nH]c(C)c1-c1ccc(NC(=O)[C@H](NC(=O)c2ccnn2C(C)C)C2CCC3(CC2)CC3)cc1` [Example 111, N-[(1R)-2-[4-(3,5-dimethyl-1H-pyrazol-4-yl)anilino]-2-oxo-1-spiro[2.5]octan-6-yl-ethyl]-2-isopropyl-pyrazole-3-carboxamide] reads more than 1000 nM; that for `Cc1n[nH]c(C)c1-c1ccc(NC(=O)[C@@H](NC(=O)OCc2ccccn2)C2CCCCC2)cc1` [Example 431, 2-pyridylmethyl N-[(1S)-1-cyclohexyl-2-[4-(3,5-dimethyl-1H-pyrazol-4-yl)anilino]-2-oxo-ethyl]carbamate], 100 to 1000 nM; that for `Cc1n[nH]c(C)c1-c1ccc(NC(=O)[C@H](Cc2ccccc2Cl)NC(=O)c2ccnn2C)cc1` [Example 25], more than 1000 nM.
For `CC(C)n1nccc1C(=O)N[C@H](C(=O)Nc1ccc(-c2cccnc2CO)cc1)C(C1CC1)C1CC1` [Example 407, N-[(1S)-1-(dicyclopropylmethyl)-2-[4-[2-(hydroxymethyl)-3-pyridyl]anilino]-2-oxo-ethyl]-2-isopropyl-pyrazole-3-carboxamide], the EC50 fell in the range of 100 to 1000 nM.
Regarding `Cn1cncc1-c1ccc(NC(=O)[C@@H](NC(=O)OC(C)(C)C)C(C2CCCCC2)C2CCCC2)cc1` (single isomer, unassigned) [Example 313], the concentration giving a half-maximal response (EC50) was more than 1000 nM.
The result for `Cc1n[nH]c(C)c1-c1ccc(NC(=O)[C@@H](NC(=O)c2ccnn2CCS(C)(=O)=O)C(C2CC2)C2CC2)cc1` [Example 158, N-[(1S)-1-(dicyclopropylmethyl)-2-[4-(3,5-dimethyl-1H-pyrazol-4-yl)anilino]-2-oxo-ethyl]-2-(2-methylsulfonylethyl) pyrazole-3-carboxamide] reads less than 100 nM; that for `CCn1nccc1C(=O)N[C@H](C(=O)Nc1ccc(-c2c(C)ncn2C)c(O)c1)C(C1CC1)C1CC1` [Example 362, N-[(1S)-1-(dicyclopropylmethyl)-2-[4-(3,5-dimethylimidazol-4-yl)-3-hydroxy-anilino]-2-oxo-ethyl]-2-ethyl-pyrazole-3-carboxamide], 100 to 1000 nM; that for `Cc1n[nH]c(C)c1-c1ccc(NC(=O)[C@@H](NC(=O)c2ccnn2C(C)C)[C@@H](C)C2CC2)cc1` [Example 283, N-[(1S,2S)-2-cyclopropyl-1-[4-(3,5-dimethyl-1H-pyrazol-4-yl)phenyl]carbamoyl] propyl-2-isopropyl-pyrazole-3-carboxamide], 100 to 1000 nM.
`Cc1n[nH]c(C)c1-c1ccc(NC(=O)[C@@H](NC(=O)c2ccnn2CC(F)F)C(C2CC2)C2CC2)cc1` [Example 115, N-[(1S)-1-(dicyclopropylmethyl)-2-[4-(3,5-dimethyl-1H-pyrazol-4-yl)anilino]-2-oxo-ethyl]-2-(2,2-difluoroethyl)pyrazole-3-carboxamide]: the concentration for a half-maximal effect (EC50) is less than 100 nM.
The value for `Cc1n[nH]c(C)c1-c1ccc(NC(=O)[C@@H](NC(=O)c2ccnn2C(CF)CF)C(C2CC2)C2CC2)cc1` [Example 217] was less than 100 nM; that for `Cc1n[nH]c(C)c1-c1ccc(NC(=O)C(NC(=O)c2ccnn2C(C)C)C2CCCCCCC2)cc1` (single isomer, unassigned) [Example 152, N-[1-cyclooctyl-2-[4-(3,5-dimethyl-1H-pyrazol-4-yl)anilino]-2-oxo-ethyl]-2-(1-methylethyl)pyrazole-3-carboxamide] was less than 100 nM.
The result for `Cc1n[nH]c(C)c1-c1ccc(NC(=O)C(NC(=O)c2ccnn2C)C2CCC(C)(C)C2)cc1` (stereo not drawn) [Example 266, N-[1-(3,3-dimethylcyclopentyl)-2-[4-(3,5-dimethyl-1H-pyrazol-4-yl)anilino]-2-oxo-ethyl]-2-methyl-pyrazole-3-carboxamide] reads 100 to 1000 nM.
In the case of `CC(C)c1nc[nH]c1-c1ccc(NC(=O)[C@@H](NC(=O)c2ccnn2C(C)C)C(C2CC2)C2CC2)cc1` [Example 380, N-[(1S)-1-(dicyclopropylmethyl)-2-[4-(4-isopropyl-1H-imidazol-5-yl)anilino]-2-oxo-ethyl]-2-isopropyl-pyrazole-3-carboxamide], the EC50 lay within 100 to 1000 nM.
